# Measurements: US11103523B2, “Self-assembled brush block copolymer-nanoparticles for drug delivery” (UNIVERSITY OF CONNECTICUT, priority 2013, dated 2021)
# Assays:
# [1] = test system: HeLa cells; experiment: Intracellular uptake in HeLa cells (confocal microscopy and flow cytometry); format: cell-based, human; settings: 25 μg/mL DOX equivalents
# Experimental: To observe the cellular uptake, HeLa cells were seeded at a density of 1.0×10^5 cells/well in an 8-well chamber of a Lab-Tek II chamber slide and pre-incubated for 24 h at 37° C. and 5% CO2. Serum-free DMEM containing free DOX and DOX-NPs at equivalent doses (25 μg/mL) was added to each well, followed by incubation for 2 h at 37° C. The cells were then rinsed with PBS, stained with 10 μM Draq5 and fixed with 4% formaldehyde solution for 10 min. Cover glasses were then placed on glass slides. The cellular uptake of free DOX and DOX-NPs was imaged by confocal laser scanning microscopy (Leica, England) at an excitation wavelength of 488 nm for DOX and 633 nm for Draq5.
# To quantify cellular uptake, HeLa cells (5×10^5 cells/well) in 0.5 mL were grown on a 24-well plate at 37° C. in a humidified atmosphere of 5% CO2 for 24 h. Serum-free DMEM containing free DOX and DOX-NPs at equivalent doses (25 μg/mL) was added to the cells which were subsequently incubated for 2 h. The cells were then washed three times with PBS, harvested by trypsinization and transferred into Fluorescence Activated Cell Sorter (FACS) tubes. All samples were analyzed by flow cytometry (FACSCalibur, BD Biosciences, San Jose, Calif.) to determine cellular internalization. Fluorescence measurements of intracellular DOX were performed in the FL2 channel.
# [2] = Tissue distribution of DOX in A549 tumor-bearing SCID mice; format: in vivo; settings: 24 h after i.v. 2.5 mg/kg equivalent DOX
# Experimental: For the tissue distribution study, tumor-bearing severe combined immunodeficient (SCID) between 6 and 8 weeks-old mice were inoculated with 0.1 mL PBS containing 2×10^6 human lung cancer cells (A549) into the right flank. […] Twenty four hours after injection, mice were sacrificed for blood and organ collection including tumor, liver, spleen, kidney, lung, and heart. Tissues were then weighed and homogenized in the lysis buffer (0.1 M Tris-HCl, 2 mM EDTA, 0.1% Triton X-100) using a probe sonicator (Qsonica LLC, CT). The lysate of each tissue was centrifuged at 14,000 rpm for 20 min at 4° C. The blood was centrifuged at 3000 rpm for 10 min at 4° C.
# [3] = test system: A549 cells; experiment: Antitumor activity and systemic toxicity in SCID mice bearing subcutaneous A549 tumors; format: in vivo
# Experimental: The antitumor efficacy of DOX and DOX-NPs was evaluated in SCID mice inoculated subcutaneously in the right flank with 0.1 mL PBS containing 2×10^6 A549 cells. When the tumors grew to approximately 20-30 mm^3 (9 days after tumor implantation), the mice were randomly divided into three groups (n=5-6), and this day was designated as day 0. The mice were injected intravenously twice a week via tail vein with saline (control), free DOX and DOX-NPs (100 μL) at 2.5 mg/kg of equivalent DOX. Antitumor activity was evaluated in terms of tumor volume which was calculated using the following equation: Tumor volume (mm^3)=width^2×length/2. The body weight was measured simultaneously as an indicator of the systemic toxicity.
# [4] = test system: HeLa cells; experiment: Cytotoxicity in HeLa cells, MTT; settings: all DOX concentrations (1-50 μg/mL), 24 h
# Experimental: HeLa cells (7500 cells/well) were seeded on 96-well plates and cultured in 200 μL of DMEM supplemented with 10% FBS, 1% antibiotics, and 1% L-glutamine for 24 h at 37° C. and 5% CO2. After incubation, various concentrations of the blank nanoparticles (0.2-1 mg/mL), DOX-NPs, and free DOX (1-50 μg/mL of DOX equivalents) dissolved in DMEM without supplements were added. After 24 h of incubation with free DOX and DOX-NPs, and 48 h with blank nanoparticles, cytotoxicity was determined using 3-[4,5-dimethylthiazol-2-yl]-3,5-diphenyltetrazolium bromide dye (MTT dye, final concentration of 0.5 mg/mL) uptake at 540 nm on a microplate reader (Tecan group Ltd., Mannedorf, Switzerland).
# [5] = 2.5 mg/kg equivalent DOX, tumor-bearing SCID mice
smiles,measurement,setting,value
"COc1cccc2c1C(=O)c1c(O)c3c(c(O)c1C2=O)C[C@@](O)(C(=O)CO)C[C@@H]3O[C@H]1C[C@H](N)[C@H](O)[C@H](C)O1 [free DOX, doxorubicin]",mean fluorescence intensity (flow cytometry),[1]; 2 h,greater fluorescence intensity than those treated with DOX-NPs
same,intracellular distribution of DOX fluorescence (CLSM),[1]; 2 h of incubation,strong red color in the nuclei
same,tissue with greatest / lowest concentration of DOX,[2],greatest in the liver and lowest in the tumor
same,effect on tumor growth,[3]; 2.5 mg/kg equivalent DOX i.v. twice a week,tumor growth was inhibited
same,decrease in body weight,[3]; [5],28.1±1.2%
same,survival,[3]; [5],death of all mice within 11 days
same,cytotoxicity comparison,[4],significantly higher cytotoxicity than DOX-NPs
